Values quoted from earlier work in patent publication US20090258897A1, “Substituted benzimidazoles” (Auspex Pharmaceuticals, Inc., priority 2008, published 2009).

Biological target: T1, gastric H^+, K^+-ATPase (Homo sapiens, UniProt P20648)
T1 construct: host or cells: healthy volunteers (in vivo, endogenous gastric enzyme)

[1] = healthy volunteers, even after stoppage of the drug

T1 sequence (P20648 whole entry): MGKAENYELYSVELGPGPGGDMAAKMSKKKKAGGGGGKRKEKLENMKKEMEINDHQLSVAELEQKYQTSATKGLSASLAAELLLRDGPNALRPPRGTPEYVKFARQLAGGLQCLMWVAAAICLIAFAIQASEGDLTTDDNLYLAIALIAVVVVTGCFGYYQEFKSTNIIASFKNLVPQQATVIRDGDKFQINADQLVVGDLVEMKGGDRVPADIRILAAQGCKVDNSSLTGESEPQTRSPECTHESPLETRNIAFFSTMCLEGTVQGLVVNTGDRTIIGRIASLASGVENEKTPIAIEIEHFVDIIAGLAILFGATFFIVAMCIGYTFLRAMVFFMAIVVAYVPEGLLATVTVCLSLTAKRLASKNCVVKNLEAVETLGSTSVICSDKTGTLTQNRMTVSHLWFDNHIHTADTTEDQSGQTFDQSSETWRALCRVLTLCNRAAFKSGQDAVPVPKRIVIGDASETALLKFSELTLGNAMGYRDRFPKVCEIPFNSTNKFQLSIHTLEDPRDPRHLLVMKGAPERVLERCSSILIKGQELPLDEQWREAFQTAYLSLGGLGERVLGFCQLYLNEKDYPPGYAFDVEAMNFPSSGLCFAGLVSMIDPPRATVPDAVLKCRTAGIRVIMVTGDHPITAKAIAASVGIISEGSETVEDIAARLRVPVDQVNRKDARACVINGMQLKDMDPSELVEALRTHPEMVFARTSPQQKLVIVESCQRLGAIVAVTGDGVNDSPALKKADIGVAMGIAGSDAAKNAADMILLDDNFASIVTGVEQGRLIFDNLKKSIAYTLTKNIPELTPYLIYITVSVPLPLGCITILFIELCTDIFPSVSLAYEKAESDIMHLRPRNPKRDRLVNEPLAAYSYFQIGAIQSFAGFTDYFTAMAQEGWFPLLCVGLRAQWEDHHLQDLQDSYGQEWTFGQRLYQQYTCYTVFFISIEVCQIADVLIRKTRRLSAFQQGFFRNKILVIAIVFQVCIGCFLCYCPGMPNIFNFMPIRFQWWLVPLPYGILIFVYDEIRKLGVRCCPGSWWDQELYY
T1 sequence (P51164 whole entry partner): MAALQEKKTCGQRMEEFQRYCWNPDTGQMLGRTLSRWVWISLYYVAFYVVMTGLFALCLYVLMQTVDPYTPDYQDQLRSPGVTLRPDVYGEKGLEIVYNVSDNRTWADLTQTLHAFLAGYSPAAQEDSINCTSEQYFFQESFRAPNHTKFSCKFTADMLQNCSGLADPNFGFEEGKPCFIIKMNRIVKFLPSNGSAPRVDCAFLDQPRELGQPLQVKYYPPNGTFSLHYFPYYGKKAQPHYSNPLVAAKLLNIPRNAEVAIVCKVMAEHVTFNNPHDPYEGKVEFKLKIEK

potency compared to other proton pump inhibitors (PPIs) such as esomeprazole (clinical trials): improved potency
duration of acid suppression as compared with other PPIs [1]: prolonged duration of acid suppression
nocturnal acid breakthrough as compared with other PPIs [1]: shorter nocturnal acid breakthrough
SMILES: COc1ccc2[nH]c([S+]([O-])Cc3ncc(C)c(OC)c3C)nc2n1 (stereo not drawn) [tenatoprazole, 5-methoxy-2-(4-methoxy-3,5-dimethyl-pyridin-2-ylmethane-sulfinyl)-1H-imidazo[4,5-b]pyridine]
